According to patent US10544113B2 (priority 2016, dated 2020):
pEC50: −log10 of the molar value. Read-outs that look alike come from different tables or passages of the source.

Molecular target: mu-opioid receptor (MOR) (Homo sapiens (Human), UniProt P35372)
Test: cell-based
Conditions: for AUC: AUC of [Ca2+]i fluorescence
Method: In an exemplary in vitro screening method for identifying antagonist-to-agonist allosteric modifiers of a MOR, cells that express a MOR are treated with a test compound and a MOR antagonist in a cellular calcium fluorescent assay and fluorescence intensity is then measured to determine whether the MOR is activated. A test compound is identified as an antagonist-to-agonist allosteric modifier of the MOR if the MOR is activated.
EC50 herein refers to the concentration of a compound that induces a response halfway between the baseline and the maximum after a specified exposure time. AUC refers to the area under the response curve, an indication of the compound's capability of activating a MOR when combined with a MOR antagonist.
Human embryonic kidney 293 (HEK-293) cells constitutively expressing MOR (HEK-MOR) and DOR (HEK-DOR) (kindly provided by Dr. Ping-Yee Law, University of Minnesota, USA) were cultured in high-glucose Dulbecco's modified Eagle's medium (DMEM, GIBCO) supplemented with 400 μg/mL G418 (Sigma), 2 mM L-glutamine and P/S/F (100 units/mL penicillin, 100 μg/mL streptomycin, 10% fetal bovine serum). Chinese hamster ovary (CHO)-K1 cells, stably expressing hMOR and Gα15 (CHO-K1/MOR/Gα15), were cultured in F12 medium (GIBCO) supplemented with 10 μg/mL Hygromycin B (Invivogen), 20 μg/mL Zeocin (Invivogen) P/S/F (100 units/mL penicillin, 100 μg/mL streptomycin, 10% fetal bovine serum). The cultures were incubated at 37° C. in a humidified 5% CO2 incubator.
One day before the assay, CORNING® black with clear flat bottom 96-well assay plates were coated with a 0.1 mg/mL Poly-L-Lysine solution. CHO-K1/MOR/Gα15 cells were suspended in the F12 medium and plated at a density of ˜8×10^4 cells/well in 200 μL medium. Cells were incubated in a humidified atmosphere of 10% CO2 at 37° C. overnight so as to reach an 80-90% confluent cell monolayer before assay. At the day of assay, 150 μL medium/well was removed from plate. To each well, 50 μL FLIPR® calcium assay reagent dissolved in 1× assay buffer (HBSS: KCl 5 mM, KH2PO4 0.3 mM, NaCl 138 mM, NaHCO3 4 mM, Na2HPO4 0.3 mM, d-glucose 5.6 mM, with additional 20 mM HEPES and 13 mM CaCl2, pH 7.4), with 2.5 mM probenecid was added and the plate was incubated at 37° C. for 1 h. Compounds and other reagents were dissolved in the assay buffer. Using a FlexStationIII (Molecular Devices Corp.), the [Ca^2+]i fluorescence increases after robotic injections of compounds or other reagents were monitored every 1.52 s interval with excitation wavelength at 485 nm and with emission wavelength at 525 nm. The [Ca^2+]i fluorescence was measured up to 90 s after agonist injection.
A CHO-K1 cell line, expressing a MOR and Gα15 (GenScript), was used to set up a sensitive high-throughput screen (HTS) system. In a FLIPR® calcium assay using CHO-K1/MOR/Gα15 cells, activation of MOR elicits an intracellular calcium release leading to an increase in the relative fluorescence units (FRU). […] The HTS was performed in the absence or presence of an opioid antagonist, naloxone (25 nM), to identify antagonist to agonist allosteric modifiers (AAM).
A CHO-K1 cell line, expressing a MOR and Gα15 (GenScript), was used to set up a sensitive assay system for detecting μ-opioid receptor activation. […] The assay was performed in the presence of an opioid antagonist, i.e., naloxone (25 nM), naltrexone (20 nM), samidorphan (10 nM), naloxonazine dihydrochloride (20 nM), β-funaltrexamine hydrochloride (20 nM), cyprodime hydrochloride (500 nM), or nalmefene (20 nM), in combination with compound 58, an antagonist to agonist allosteric modifier (AAM), to identify activation of the μ-opioid receptor.

[1] = EC50, CHO-K1/MOR/Gα15 cells, combined with a MOR antagonist
[2] = CHO-K1/MOR/Gα15 cells, combined with a MOR antagonist
[3] = combined with a MOR antagonist, read-out: FLIPR Ca^2+ EC50

mu-opioid receptor (MOR), sequence (P35372 whole entry): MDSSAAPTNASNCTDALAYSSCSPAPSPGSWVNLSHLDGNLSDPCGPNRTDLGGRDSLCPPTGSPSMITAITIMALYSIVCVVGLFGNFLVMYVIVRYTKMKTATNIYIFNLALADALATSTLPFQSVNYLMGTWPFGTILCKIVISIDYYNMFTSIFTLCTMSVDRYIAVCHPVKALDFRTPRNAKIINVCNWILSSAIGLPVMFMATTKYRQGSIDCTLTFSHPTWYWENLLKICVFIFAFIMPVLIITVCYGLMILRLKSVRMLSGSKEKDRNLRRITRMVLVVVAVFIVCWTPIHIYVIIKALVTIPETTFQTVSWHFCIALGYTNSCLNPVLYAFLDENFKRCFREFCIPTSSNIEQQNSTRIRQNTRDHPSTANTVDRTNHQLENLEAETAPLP

Row | SMILES | pEC50 [1] | AUC [2] | FLIPR Ca^2+ AUC (combined with a MOR antagonist) | pEC50 [3] | pEC50 (FLIPR Ca^2+ EC50, combined with a MOR antagonist) | pEC50 (CHO-K1/MOR/Gα15 cells, combined with a MOR antagonist, read-out: EC50)
1 | Cc1cc(C(=O)OCOC(=O)OC(C)C)ccc1N1C(=O)CSC1c1ccc(F)cc1 (stereo not shown) [Example 314] | > 5.00 |  |  |  |  | 
2 | Cc1ccc(C(F)(F)F)cc1N1C(=O)CSC1c1ccc(F)cc1 (stereo not shown) [Example 92] | > 5.00 |  |  |  |  | 
3 | CCS(=O)(=O)NC(=O)c1ccc(N2C(=O)CSC2c2ccc(F)cc2)c(C)c1 (stereo not shown) [Example 162] | > 5.00 | more than 5000 | 13767 | 5.04 |  | 
4 | Cc1cc(C(N)=O)ccc1N1C(=O)CSC1c1ccc(F)cc1 (stereo not shown) [Example 329] | > 5.00 | more than 5000 | 13749 | 5.77 |  | 
5 | CC(=O)OCCOC(=O)c1ccc(N2C(=O)CSC2c2ccc(F)cc2)c(C)c1 (stereo not shown) [Example 272] | > 5.00 |  |  |  |  | 
6 | CCN(CC)CCOC(=O)c1ccc(N2C(=O)CSC2c2ccc(F)cc2)c(C)c1 (stereo not shown) [Example 292] |  |  | 10056 | 5.51 |  | 
7 | Cc1cc(C(=O)OC(C)CNC(=O)c2cccnc2)ccc1N1C(=O)CSC1c1ccc(F)cc1 (stereo not shown) [Example 326] | > 5.00 |  |  |  |  | 
8 | CC(=O)N1CCC(CCOC(=O)c2ccc(N3C(=O)CSC3c3ccc(F)cc3)c(C)c2)CC1 (stereo not shown) [Example 299] |  |  | 10053 | 5.30 |  | 
9 | Cc1cc(C(=O)NCc2ccc(F)c(F)c2)ccc1N1C(=O)CSC1c1ccc(F)cc1 (stereo not shown) [Example 378] | > 5.00 |  | 15891 | 5.20 |  | 
10 | CCOC(=O)c1ccc(N2C(=O)CSC2c2ccc(F)cc2)c(C)n1 (stereo not shown) [Example 635, Ethyl 5-[2-(4-fluorophenyl)-4-oxo-1,3-thiazolidin-3-yl]-6-methylpyridine-2-carboxylate] |  | more than 5000 | 9843 | 4.96 |  | 
11 | CCONC(=O)c1ccc(N2C(=O)CSC2c2ccc(F)cc2)c(C)c1 (stereo not shown) [Example 588, N-Ethoxy-4-[2-(4-fluorophenyl)-4-oxo-1,3-thiazolidin-3-yl]-3-methylbenzamide] | > 5.00 | more than 5000 | 9986 | 5.03 |  | 
12 | Cc1ccc(F)cc1N1C(=O)CSC1c1cc(F)cc(F)c1 (stereo not shown) [Example 122] |  | more than 5000 | 7010 | 5.44 |  | 
13 | Cc1cc(-c2nnn[nH]2)ccc1N1C(=O)CSC1c1ccc(F)cc1 (stereo not shown) [Example 221] |  |  | 8284 | 6.70 |  | 
14 | Cc1cc(C(=O)NS(=O)(=O)Cc2cccc(F)c2)ccc1N1C(=O)CSC1c1ccc(F)cc1 (stereo not shown) [Example 177] |  |  | 16276 | 5.66 |  | 
15 | Cc1ccc(C(=O)O)cc1N1C(=O)CSC1c1ccc(F)cc1 (stereo not shown) [Example 54] |  |  | 8906 | 5.48 |  | 
16 | Cc1cc(C(=O)NS(=O)(=O)N(C)C)ccc1N1C(=O)CSC1c1ccc(F)cc1 (stereo not shown) [Example 174] |  |  | 12074 | 5.42 |  | 
17 | COc1cc(CNC(=O)c2ccc(N3C(=O)CSC3c3ccc(F)cc3)c(C)c2)cc(OC)c1 (stereo not shown) [Example 380] | > 5.00 | more than 5000 | 10013 | 5.09 |  | 
18 | COCCOCCOC(=O)c1ccc(S(=O)(=O)NC(=O)c2ccc(N3C(=O)CSC3c3ccc(F)cc3)c(C)c2)cc1 (stereo not shown) [Example 591, 2-(2-Methoxyethoxy)ethyl 4-({4-[2-(4-fluorophenyl)-4-oxo-1,3-thiazolidin-3-yl]-3-methylbenzoyl}sulfamoyl)benzoate] |  | more than 5000 | 13033 | 4.99 |  | 
19 | [2H]C1(c2ccc(F)cc2)SCC(=O)N1c1ccc(C(=O)OCC)cc1C (stereo not shown) [Example 583, Ethyl 4-[2-(4-fluorophenyl)-4-oxo-2-d1-1,3-thiazolidin-3-yl]-3-methylbenzoate] | > 5.00 | more than 5000 | 11275 |  | 5.35 | 
20 | Cc1ccc(F)cc1N1C(=O)CSC1c1ccc(F)cc1 (stereo not shown) [Example 112] | > 5.00 |  |  |  |  | 

Row | SMILES | pEC50 [1] | AUC [2] | FLIPR Ca^2+ AUC (combined with a MOR antagonist) | pEC50 [3] | pEC50 (FLIPR Ca^2+ EC50, combined with a MOR antagonist) | pEC50 (CHO-K1/MOR/Gα15 cells, combined with a MOR antagonist, read-out: EC50)
21 | CCOC(=O)c1ccc(N2C(=O)CSC2c2ccc(F)cc2)c(CC)c1 (stereo not shown) [Example 156] | > 5.00 | more than 5000 | 11998 | 5.21 |  | 
22 | CCN(CC)CCNC(=O)c1ccc(N2C(=O)CSC2c2ccc(F)cc2)c(C)c1 (stereo not shown) [Example 341] |  |  | 9983 | 5.48 |  | 
23 | Cc1cc(C(=O)OCCOCCN2CCCC2)ccc1N1C(=O)CSC1c1ccc(F)cc1 (stereo not shown) [Example 307] | > 5.00 | more than 5000 | 14731 | 5.06 |  | 
24 | COc1ccccc1NC(=O)c1ccc(N2C(=O)CSC2c2ccc(F)cc2)c(C)c1 (stereo not shown) [Example 373] |  | more than 5000 | 12223 | 4.87 |  | 
25 | Cc1cc(N(C)C)ccc1N1C(=O)CSC1c1ccc(F)cc1 (stereo not shown) [Example 53] |  |  | 6407 | 6.30 |  | 
26 | COc1ccc(N2C(=O)CSC2c2ccc(F)cc2)c(C)c1 (stereo not shown) [Example 47] | > 5.00 |  |  |  |  | 
27 | Cc1cc(C(=O)NS(=O)(=O)c2cccnc2)ccc1N1C(=O)CSC1c1ccc(F)cc1 (stereo not shown) [Example 211] | > 5.00 | more than 5000 | 8779 | 6.52 |  | 
28 | COCCN(C)C(=O)c1ccc(N2C(=O)CSC2c2ccc(F)cc2)c(C)c1 (stereo not shown) [Example 356] |  |  | 9505 | 4.93 |  | 
29 | Cc1cc(C(=O)OCCCN(C)C)ccc1N1C(=O)CSC1c1ccc(F)cc1 (stereo not shown) [Example 291] |  |  | 8913 | 5.72 |  | 
30 | Cc1cc(C(=O)NS(=O)(=O)c2ccc(Cl)cc2)ccc1N1C(=O)CSC1c1ccc(F)cc1 (stereo not shown) [Example 198] | > 5.00 | more than 5000 | 13313 | 6.30 |  | 
31 | Cc1cc(S(=O)(=O)NC(=O)c2ccc(N3C(=O)CSC3c3ccc(F)cc3)c(C)c2)c(C)cc1Cl (stereo not shown) [Example 208] | > 5.00 |  |  |  |  | 
32 | Cc1cc(C(=O)NS(=O)(=O)C(F)(F)F)ccc1N1C(=O)CSC1c1ccc(F)cc1 (stereo not shown) [Example 175] |  |  | 13866 | 5.80 |  | 
33 | Cc1cc(C(=O)NS(=O)(=O)Cc2ccccc2)ccc1N1C(=O)CSC1c1ccc(F)cc1 (stereo not shown) [Example 176] |  |  | 10601 | 5.70 |  | 
34 | Cc1cc(C(=O)NC2CCCC2)ccc1N1C(=O)CSC1c1ccc(F)cc1 (stereo not shown) [Example 338] | > 5.00 |  | 9215 | 5.36 |  | 
35 | CONC(=O)c1ccc(N2C(=O)CSC2c2ccc(F)cc2)c(C)c1 (stereo not shown) |  |  | 14236 | 5.38 |  | 
36 | Cc1cc(-c2nnc(C(F)(F)F)o2)ccc1N1C(=O)CSC1c1ccc(F)cc1 (stereo not shown) [Example 228] |  |  | 7035 | 5.07 |  | 
37 | Cc1cc(C(=O)O)ccc1N1C(=O)CSC1c1ccc(Cl)cc1 (stereo not shown) [Example 84] | > 5.00 | more than 5000 | 5509 | 5.14 |  | 
38 | CCOC(=O)c1ccc(N2C(=O)CSC2c2ccc(F)cc2)c(C)c1 (stereo not shown) [Example 152] |  | more than 5000 | 14743 | 5.20 |  | > 5.00
39 | Cc1cc(C(=O)OCC(F)(F)F)ccc1N1C(=O)CSC1c1ccc(F)cc1 (stereo not shown) [Example 286] | > 5.00 | more than 5000 | 13001 | 5.04 |  | 
40 | Cc1cc(C(=O)NCc2cccc(C(F)(F)F)c2)ccc1N1C(=O)CSC1c1ccc(F)cc1 (stereo not shown) [Example 377] |  |  | 12637 | 4.90 |  | 
